According to patent US20230293517A1, “ANTAGONIST COMPOUNDS” (AdoRx Therapeutics Limited, priority 2020, published 2023):
Structures can show the parent of a compound that is named as a salt. Where two headings read alike, the source gives them in different places.

Assays:
[1] = molecular target: human Adenosine A2a receptor (Homo sapiens (Human), UniProt P29274); assay: Adenosine receptor TR-FRET binding assay (A2a); settings: inhibition of binding of 100 nM CA200645, CHO cell membranes
Method: (§1) Biological Example 1—Adenosine Receptor Time-Resolved Fluorescence Resonance Energy Transfer (TRFRET) Binding Assay
(§2) All FRET binding experiments were conducted at room temperature in white 384-well plates, in assay binding buffer containing 1×LabMed (Cisbio, France), 100 μg/mL saponin, 1% DMSO and 0.02% pluronic acid. Binding of the fluorescently labelled Adenosine receptor antagonist XAC (CA200645, FRET acceptor) to terbium-labelled A1, A2a, A2b and A3 adenosine receptors (FRET donors) was detected by time-resolved FRET due to the close proximity of the donor and acceptor in a binding event. To investigate the ability of unlabelled test compounds to bind to Adenosine A1, A2a, A2b and A3 receptors, dose response curves were constructed that determined the ability of a range of concentrations to inhibit the binding of 30 nM CA200645 to the A2b receptor and 100 nM CA200645 to the A1, A2a, and A3 receptor.
(§3) Serial dilution (1:3 dilutions) of test compounds in neat DMSO and transfer of a 400 nL sample of test compound into the assay plate was carried out using the Mosquito (TTP Labtech, UK). The compound samples were incubated for 2 hours at room temperature with a fixed concentration of CA200645 defined for each receptor (see above) and CHO cell membranes containing the human Adenosine A1 (0.5 μg/well), A2a (0.3 μg/well), A2b (1 μg/well) or A3 (1 μg/well) receptor in 40 μL of assay buffer. Total and non-specific binding of CA200645 was determined in the absence and presence of 10 μM XAC, respectively. Following 2 hours incubation, the level of CA200645 binding was detected on a Pherastar FSX (BMG Labtech, Germany) using standard TR-FRET settings. The terbium donor was excited with three laser flashes at a wavelength of 337 nm, and donor and acceptor emission was detected at 620 nm and 665 nm wavelengths, respectively. FRET ratios were obtained by multiplying the acceptor/donor ratio value by 10,000. Specific binding was determined by subtracting the non-specific binding FRET ratio from the total binding FRET ratio. Compound IC50 curves were analysed using GraphPad Prism 7.0 (GraphPad, USA) and Ki affinity values were determined from the obtained IC50 values using the method of Cheng and Prusoff.

[2] = molecular target: human Adenosine A3 receptor (Homo sapiens (Human), UniProt P0DMS8); assay: Adenosine receptor TR-FRET binding assay (A3); settings: inhibition of binding of 100 nM CA200645, CHO cell membranes
Sequence of human Adenosine A3 receptor (P0DMS8 whole entry): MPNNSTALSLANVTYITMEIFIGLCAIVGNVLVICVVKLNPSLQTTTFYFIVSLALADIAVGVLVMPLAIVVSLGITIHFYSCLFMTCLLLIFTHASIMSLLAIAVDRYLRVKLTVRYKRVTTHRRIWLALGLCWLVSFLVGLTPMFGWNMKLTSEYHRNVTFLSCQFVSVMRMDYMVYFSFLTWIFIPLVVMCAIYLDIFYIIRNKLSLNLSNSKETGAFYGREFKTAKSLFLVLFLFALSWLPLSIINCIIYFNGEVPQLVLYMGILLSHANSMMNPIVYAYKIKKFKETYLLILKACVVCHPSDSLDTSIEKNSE
Method: as §1, §2, §3

[3] = molecular target: human Adenosine A1 receptor (Homo sapiens (Human), UniProt P30542); assay: Adenosine receptor TR-FRET binding assay (A1); settings: inhibition of binding of 100 nM CA200645, CHO cell membranes
Sequence of human Adenosine A1 receptor (P30542 whole entry): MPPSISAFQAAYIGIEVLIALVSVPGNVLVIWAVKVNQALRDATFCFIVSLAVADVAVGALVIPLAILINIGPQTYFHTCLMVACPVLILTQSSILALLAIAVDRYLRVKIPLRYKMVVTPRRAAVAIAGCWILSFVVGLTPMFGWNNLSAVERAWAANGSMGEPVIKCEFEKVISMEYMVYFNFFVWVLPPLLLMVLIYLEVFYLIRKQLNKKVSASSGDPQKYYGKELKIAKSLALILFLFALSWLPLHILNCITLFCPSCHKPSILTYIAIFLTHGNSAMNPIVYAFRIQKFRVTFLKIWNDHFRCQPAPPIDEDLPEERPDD
Method: as §1, §2, §3

[4] = molecular target: human Adenosine A2b receptor (Homo sapiens (Human), UniProt P29275); assay: Adenosine receptor TR-FRET binding assay (A2b)
Sequence of human Adenosine A2b receptor (P29275 whole entry): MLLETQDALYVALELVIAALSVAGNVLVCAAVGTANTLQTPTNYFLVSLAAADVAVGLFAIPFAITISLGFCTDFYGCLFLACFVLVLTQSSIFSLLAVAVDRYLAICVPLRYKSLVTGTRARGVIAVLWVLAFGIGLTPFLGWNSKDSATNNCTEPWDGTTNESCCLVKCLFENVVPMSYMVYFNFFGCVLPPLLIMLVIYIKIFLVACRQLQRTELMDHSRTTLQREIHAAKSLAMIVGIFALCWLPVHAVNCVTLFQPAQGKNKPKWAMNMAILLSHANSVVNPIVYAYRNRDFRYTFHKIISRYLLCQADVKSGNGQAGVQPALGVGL
Method: as §1, §2, §3

[5] = TR-FRET, inhibition of binding of 30 nM CA200645, CHO cell membranes

Sequence of human Adenosine A2a receptor (P29274 whole entry): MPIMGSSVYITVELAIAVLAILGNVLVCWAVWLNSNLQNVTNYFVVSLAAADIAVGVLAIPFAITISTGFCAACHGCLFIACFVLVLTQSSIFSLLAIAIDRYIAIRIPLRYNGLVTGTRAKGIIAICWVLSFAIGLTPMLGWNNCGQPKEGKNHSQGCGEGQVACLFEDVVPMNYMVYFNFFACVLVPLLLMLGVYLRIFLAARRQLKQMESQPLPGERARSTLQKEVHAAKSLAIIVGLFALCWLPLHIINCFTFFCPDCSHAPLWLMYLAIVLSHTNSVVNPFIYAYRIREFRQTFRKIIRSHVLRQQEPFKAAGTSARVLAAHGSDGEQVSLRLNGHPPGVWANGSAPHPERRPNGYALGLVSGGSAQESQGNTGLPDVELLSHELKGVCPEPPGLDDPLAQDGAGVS

Ki [1] [nM] | Ki [2] [nM] | Ki [3] [nM] | Ki [4] [nM] | Ki [4, 5] [nM] | SMILES
2.67 | 112 | 41 | 8.6 |  | Cc1cc(-c2sc(NC(=O)N3C[C@@H]4NCCO[C@H]4C3)nc2-c2cccc(C#N)c2)cc(C(F)F)n1 (racemic) [Example 14.1, rac-(4aS,7aS)—N-[4-(3-Cyanophenyl)-5-[2-(difluoromethyl)-6-methyl-4-pyridyl]thiazol-2-yl]-3,4,4a,5,7,7a-hexahydro-2H-pyrrolo[3,4-b][1,4]oxazine-6-carboxamide 2,2,2-trifluoroacetic acid salt]
2.09 | 132 | 183 | 8.3 |  | Cc1cc(-c2sc(NC(=O)N3C[C@@H]4NCCO[C@@H]4C3)nc2-c2cccc(C#N)c2)cc(C(F)F)n1 (racemic) [Example 14.2, rac-(4aS,7aR)—N-[4-(3-Cyanophenyl)-5-[2-(difluoromethyl)-6-methyl-4-pyridyl]thiazol-2-yl]-3,4,4a,5,7,7a-hexahydro-2H-pyrrolo[3,4-b][1,4]oxazine-6-carboxamide 2,2,2-trifluoroacetic acid salt]
29.4 |  | 122 |  | 90 | Cc1cc(-c2sc(NC(=O)N3CCNCC34CCC4)nc2-c2cccc(C#N)c2)cc(C)n1 [Example 7.10, N-[4-(3-Cyanophenyl)-5-(2,6-dimethyl-4-pyridyl)thiazol-2-yl]-5,8-diazaspiro[3.5]nonane-5-carboxamide]
0.64 |  | 164 |  | 1.9 | Cc1cc(-c2sc(NC(=O)N3CC4(CNCCO4)C3)nc2-c2cccc(C#N)c2)cc(C)n1 [Example 13.1, N-[4-(3-Cyanophenyl)-5-(2,6-dimethyl-4-pyridyl)thiazol-2-yl]-5-oxa-2,8-diazaspiro[3.5]nonane-2-carboxamide]
1.9 |  | 27 |  | 4.4 | Cc1cc(-c2sc(NC(=O)N3CCNC4(CC4)C3)nc2-c2cccc(C#N)c2)cc(C)n1 [Example 13.2, N-[4-(3-Cyanophenyl)-5-(2,6-dimethyl-4-pyridyl)thiazol-2-yl]-4,7-diazaspiro[2.5]octane-7-carboxamide]
11.4 |  | 322 |  | 77 | Cc1cc(-c2sc(NC(=O)N3C[C@H](C)N[C@@H](C)C3)nc2-c2cccc(C#N)c2)cc(C)n1 [Example 13.3, (3S,5S)-N-[4-(3-Cyanophenyl)-5-(2,6-dimethyl-4-pyridyl)thiazol-2-yl]-3,5-dimethyl-piperazine-1-carboxamide]
0.18 |  | 13 |  | 4.2 | Cc1cc(-c2sc(NC(=O)N3CCN[C@H](C#N)C3)nc2-c2cccc(C#N)c2)cc(C)n1 [Example 13.14, (3S)-3-Cyano-N-[4-(3-cyanophenyl)-5-(2,6-dimethyl-4-pyridyl)thiazol-2-yl]piperazine-1-carboxamide]
0.33 |  | 41 |  | 5.1 | Cc1cc(-c2sc(NC(=O)N3CCN[C@@H](C#N)C3)nc2-c2cccc(C#N)c2)cc(C)n1 [Example 13.15, (3R)-3-Cyano-N-[4-(3-cyanophenyl)-5-(2,6-dimethyl-4-pyridyl)thiazol-2-yl]piperazine-1-carboxamide]
5.79 |  | 58 |  | 37.1 | Cc1cc(-c2sc(NC(=O)N3CCNCC3C3CC3)nc2-c2cccc(C#N)c2)cc(C)n1 (centres unmarked) [Example 14.4, N-[4-(3-Cyanophenyl)-5-(2,6-dimethyl-4-pyridyl)thiazol-2-yl]-2-cyclopropyl-piperazine-1-carboxamide]
0.43 |  | 61 |  | 2.5 | Cc1cc(-c2sc(NC(=O)N3CCNCC3CC3CC3)nc2-c2cccc(C#N)c2)cc(C)n1 (centres unmarked) [Example 14.5, N-[4-(3-Cyanophenyl)-5-(2,6-dimethyl-4-pyridyl)thiazol-2-yl]-2-(cyclopropylmethyl)piperazine-1-carboxamide]
15.6 |  | 185 |  | 33 | Cc1cc(-c2sc(NC(=O)N3CCNC(C)(C)C3)nc2-c2cccc(C#N)c2)cc(C)n1 [Example 14.6, N-[4-(3-Cyanophenyl)-5-(2,6-dimethyl-4-pyridyl)thiazol-2-yl]-3,3-dimethyl-piperazine-1-carboxamide]

Second part, the compound before the results:

SMILES | Ki [1] [nM] | Ki [2] [nM] | Ki [3] [nM] | Ki [4] [nM] | Ki [4, 5] [nM]
Cc1cc(-c2sc(NC(=O)N3C[C@H]4OCCN(C)[C@H]4C3)nc2-c2cccc(C#N)c2)cc(C(F)F)n1 (racemic) [Example 6.106, rac-(4aS,7aR)-N-[4-(3-Cyanophenyl)-5-[2-(difluoromethyl)-6-methyl-4-pyridyl]thiazol-2-yl]-4-methyl-2,3,4a,5,7,7a-hexahydropyrrolo[3,4-b][1,4]oxazine-6-carboxamide] | 1.07 | 195 | 139 | 4.5 | 
Cc1cc(-c2sc(NC(=O)N3C[C@@H]4OCCN(C)[C@H]4C3)nc2-c2cccc(C#N)c2)cc(C(F)F)n1 (racemic) [Example 6.109, rac-(4aS,7aS)-N-[4-(3-Cyanophenyl)-5-[2-(difluoromethyl)-6-methyl-4-pyridyl]thiazol-2-yl]-4-methyl-2,3,4a,5,7,7a-hexahydropyrrolo[3,4-b][1,4]oxazine-6-carboxamide] | 10.8 | 298 | 471 | 45.5 | 
Cc1cc(-c2sc(NC(=O)N3CCOCC3)nc2-c2cccc(C#N)c2)cc(Cl)n1 [Example 1, N-[5-(2-Chloro-6-methyl-4-pyridyl)-4-(3-cyanophenyl)thiazol-2-yl]morpholine-4-carboxamide] | 0.42 | 305 | 9 |  | 1.1
Cc1cc(-c2sc(NC(=O)N3CCC[C@@H]3C(C)(C)O)nc2-c2cccc(C#N)c2)cc(Cl)n1 [Example 3, (2R)—N-[5-(2-Chloro-6-methyl-4-pyridyl)-4-(3-cyanophenyl)thiazol-2-yl]-2-(1-hydroxy-1-methyl-ethyl)pyrrolidine-1-carboxamide] | 58.2 | 1980 | 1000 |  | 50.6
Cc1cc(-c2sc(NC(=O)N3CCCC3)nc2-c2cccc(C#N)c2)cc(Cl)n1 [Example 3.2] | 0.4 | 1040 | 12 |  | 0.7
Cc1cc(-c2sc(NC(=O)N3CCOCC3C(C)(C)O)nc2-c2cccc(C#N)c2)cc(Cl)n1 (centres unmarked) [Example 3.4] | 14.3 | 2050 |  |  | 14.3
Cc1cc(-c2sc(NC(=O)N3CCN[C@H](C(=O)O)C3)nc2-c2cccc(C#N)c2)cc(Cl)n1 [Example 3.5] | 11.6 | 928 | 434 |  | 11.4
Cc1cc(-c2sc(NC(=O)N3CCN[C@@H](C(C)(C)O)C3)nc2-c2cccc(C#N)c2)cc(Cl)n1 [Example 3.10] | 8.17 | 144 | 135 |  | 12.2
COCC1(C#N)CCN(C(=O)Nc2nc(-c3cccc(C#N)c3)c(-c3cc(C)nc(C)c3)s2)CC1 [Example 4.6, 4-Cyano-N-[4-(3-cyanophenyl)-5-(2,6-dimethyl-4-pyridyl)thiazol-2-yl]-4-(methoxymethyl)piperidine-1-carboxamide] | 0.18 | 170 | 41 |  | 1.2
Cc1cc(-c2sc(NC(=O)N3CCO[C@@H](CO)C3)nc2-c2cccc(C#N)c2)cc(C)n1 [Example 4.16, (2R)-N-[4-(3-Cyanophenyl)-5-(2,6-dimethyl-4-pyridyl)thiazol-2-yl]-2-(hydroxymethyl)morpholine-4-carboxamide] | 0.9 | 265 | 41 |  | 2.2
Cc1cc(-c2sc(NC(=O)N3C[C@@H](C)N[C@@H](C)C3)nc2-c2cccc(C#N)c2)cc(C)n1 [Example 13, (3S,5R)—N-[4-(3-Cyanophenyl)-5-(2,6-dimethyl-4-pyridyl)thiazol-2-yl]-3,5-dimethyl-piperazine-1-carboxamide] | 24.3 |  | 373 |  | 196
Cc1cc(-c2sc(NC(=O)N3CC4(COC4)C3)nc2-c2cccc(C#N)c2)cc(C)[n+]1[O-] [Example 17, N-[4-(3-Cyanophenyl)-5-(2,6-dimethyl-1-oxido-pyridin-1-ium-4-yl)thiazol-2-yl]-2-oxa-6-azaspiro[3.3]heptane-6-carboxamide] | 1.29 |  | 12 |  | 10
